From patent publication EP2249889B1, “CRYSTALLINE SURGICAL IMPLANT COMPOSITE MATERIALS AND KITS AND METHODS OF MANUFACTURE” (Sandvik Intellectual Property AB, priority 2008, dated 2009)
Converted amounts (≈) assume the structure as drawn.

Legend:
[1] = Release and content of Amoxicillin from HA coatings loaded with pamidronate and Amoxicillin (methods of Examples 8 and 9); format: physicochemical
[2] = format: physicochemical; conditions: for anticipated release time: assuming constant release rate until coatings are emptied, including the 22 hours of release before hydrochloric acid treatment; for drug release rate: from HA coating in PBS at room temperature, between 2 and 22 hours after start; for duration of initial rapid drug release (burst): from HA coatings, loading times 15 minutes, 1 hour, 24 hours
Description: The drug loading was performed at room temperature in 50 ml conical test tubes for four different soaking times between 15 minutes and 24 hours. […] The liquid was circulated through a cell in which the drug concentration was detected. After the release in PBS, the HA coatings soaked for 24 hours in the antibiotic solutions were dissolved by lowering the pH of the PBS to 2 by addition of hydrochloric acid. This was done to release and measure the amount of remaining drugs still present in the coatings after 22 hours of release. To relate the antibiotics concentration released to the antibacterial effect, antimicrobial susceptibility tests (E-test, AB Biodisk, Sweden) for Amoxicillin and Cephalothin was performed on strain S aureus Cowan I and on Staphylococcus epidermidis Kx293A1 (Department of Microbiology, Swedish University of Agricultural Sciences).

[3] = tested on: S aureus Cowan I; assay: E-test antimicrobial susceptibility test (MIC); format: cell-based; conditions: Staphylococcus aureus, inhibiting bacteria in 1 ml broth
Description: (§1) The drug release rate was analyzed using UV spectroscopy (Shimadzu 1650PC, Shimadzu Corp.) by immersing plates that had been soaked in Amoxicillin and Cephalothin for 15 minutes, 1 hour and 24 hours in 8.2 ml of either water or PBS at room temperature. The release was measured (using a wavelength Of 230 nm for Amoxicillin and 239 nm for Cephalothin) in water for 1 hour to investigate the initial release and then in PBS for 22 hours to investigate the slow release after the initial burst. The liquid was circulated through a cell in which the drug concentration was detected. After the release in PBS, the HA coatings soaked for 24 hours in the antibiotic solutions were dissolved by lowering the pH of the PBS to 2 by addition of hydrochloric acid. This was done to release and measure the amount of remaining drugs still present in the coatings after 22 hours of release. To relate the antibiotics concentration released to the antibacterial effect, antimicrobial susceptibility tests (E-test, AB Biodisk, Sweden) for Amoxicillin and Cephalothin was performed on strain S aureus Cowan I and on Staphylococcus epidermidis Kx293A1 (Department of Microbiology, Swedish University of Agricultural Sciences).
(§2) Table 1 presents the concentration of Amoxicillin and Cephalothin that has to be present to ensure killing of S. aureus and S. epidermidis, as divulged from the antimicrobial susceptibility tests. Table 1: Result from E-test for antimicrobial susceptibility testing, determining the minimum inhibitory concentration (MIC) of antimicrobial agents against microorganisms (inhibiting bacteria in 1 ml broth).

[4] = tested on: Staphylococcus epidermidis Kx293A1; assay: E-test antimicrobial susceptibility test (MIC); format: cell-based; conditions: inhibiting bacteria in 1 ml broth
Description: as §1, §2

[5] = tested on: Staphylococcus aureus strain Cowan I; assay: Inhibition zones of bacterial growth in bacteria agar around antibiotic loaded HA coated plates; format: cell-based; conditions: loading 15 minutes to 24 hours; release in PBS 15 minutes to 24 hours before agar; incubated 37°C 18 hours
Description: The incorporation of antibiotics was preformed by soaking the HA coated plates in 10 ml PBS containing 50 µg of either Tobramycin, Cephalotin, Amoxicillin or Gentamicin sulfate (Sigma-Aldrich Company Ltd.). The drug loading was performed at room temperature in 50 ml conical test tubes for four different soaking times between 15 minutes and 24 hours.
After incorporation of antibiotics, the plates were immediately transferred to new tubes filled with 40 ml of PBS preheated to 37°C in order to let the incorporated drug leak out for various time intervals before monitoring the antibacterial effect of the drug remaining in the coatings. After either 15 minutes, 60 minutes or 24 hours, the plates were removed and dried at room temperature for further analysis of the remaining antibacterial effect in the Staphylococcus aureus agar described below.
A Mueller-Hinton broth (Merck) containing 0.8% Agar was prepared by dissolving the powder in de-ionized water and sterilized by autoclaving at 121°C for 20 minutes. The broth was then tempered to 40°C in a water bath. Staphylococcus aureus strain Cowan I (NCTC 8530, National Collection of Type Cultures, London, UK) in a PBS suspension was added directly to the broth giving it a final optical density at 600 nm of 0.005 (corresponding to approximately 5x10^6 cfu/ml). The mixture was mixed to homogenously distribute the bacteria in the substrate and then transferred to Petri dishes. The dishes were filled to a depth of 10 mm (50 ml) with the bacterial broth. As the agar stiffened at room temperature, the titanium plates were stuck down in the agar at a right angle to the surface, having both sides in contact with the bacterial substrate. The Petri dishes were then incubated at 37°C for 18 hours. A HA coated reference plate without any antibiotics was also tested. The inhibition zones of bacterial growth formed around the plates were photographed by an imaging instrument (Geldoc 2000, Bio-Rad).

| Compound | time for which a therapeutically significant dose of amoxicillin was released ([1]; Example 10: co-loading, 10 ml PBS, 6 mg pamidronate disodium salt hydrate, 100 µg Amoxicillin, 50 °C, 25 minutes, rinsed 5 minutes in PBS) [days] | time for which a therapeutically significant dose of amoxicillin was released ([1]; Example 11: sequential loading, 7 mg pamidronate 40°C 12 minutes, then 70 µg Amoxicillin 40°C 15 minutes, soaked in PBS 7 minutes) [days] | anticipated release time [2] [h] | drug release rate [2] [µg/h·cm^2] | duration of initial rapid drug release (burst) [2] | MIC [3] [µg/mL] | MIC [4] [µg/mL] | antibacterial effect (inhibition zone, clear agar closest to the plates) [5] | amount of antibiotics remaining in the coating after 22 hours of release ([2]; buffer) |
| --- | --- | --- | --- | --- | --- | --- | --- | --- | --- |
| CC1(C)S[C@@H]2[C@H](NC(=O)[C@H](N)c3ccc(O)cc3)C(=O)N2[C@H]1C(=O)O [Amoxicillin] | 7 | 6 | 27 | 0.42±0.10 | less than 10 minutes | 0.064 (≈ 0.175 µM) | 0.19 (≈ 0.52 µM) | the antibiotic effect was preserved |  |
| NC[C@H]1O[C@H](O[C@H]2[C@H](O)[C@@H](O[C@H]3O[C@H](CO)[C@@H](O)[C@H](N)[C@H]3O)[C@H](N)C[C@@H]2N)[C@H](N)C[C@@H]1O [Tobramycin] |  |  |  |  |  |  |  | the antibiotic effect was preserved |  |
| CC(=O)OCC1=C(C(=O)O)N2C(=O)[C@@H](NC(=O)Cc3cccs3)[C@H]2SC1 [Cephalothin] |  |  | 63 | 0.22±0.06 | less than 10 minutes | 0.064 (≈ 0.161 µM) | 0.064 (≈ 0.161 µM) | the antibiotic effect was preserved | ~ 18 µg |
| Gentamicin sulfate |  |  |  |  |  |  |  | the antibiotic effect was preserved |  |
